# Reference: publication PMC6562610, “Inhibition of Hedgehog Signaling in Fibroblasts, Pancreatic, and Lung Tumor Cells by Oxy186, an Oxysterol Analogue with Drug-Like Properties” (Cells, 2019)
# Entries after “also recorded” stand apart in the source; their conditions may differ. Where two headings read alike, the source gives them in different places.
# How the values were obtained:
# [1] = test system: Gli1 transcriptional activity in NIH3T3-E1 cells; assay: Gli responsive luciferase reporter trans-activated by exogenous Gli1; assay type: cell-based, mouse; conditions: 72 h
# Experimental: (§1) NIH3T3-E1 and Sufu^−/− cells cultured in 24-well plates at 90% confluence were transiently transfected with 0.1 µg of Gli response-element reporter (pGL3b-8xGli-Luciferase) plasmid, and 10 ng of pTK-Renilla-Luciferase plasmid with or without co-transfection with 10 ng of Gli1 overexpression vector, pSRα-Gli1, as previously described using Lipofectamine LTX Plus transfection reagent (Invitrogen). Twenty-four h after transfection, cells were treated with test agents for 72 h. Then the firefly and Renilla luciferase activities were measured using a dual luciferase kit (Promega, Madison, WI, USA) and a GloMax-96 Microplate Luminometer. The firefly luciferase activities were normalized to the Renilla luciferase activities. Data are reported as the mean of triplicate determinations ± SD.
# (§2) Figure 5 Oxy186 acts downstream of Smo. (a) Sufu^−/− mouse embryonic fibroblast (MEF) cells were treated with DMEM containing 10% FBS in the presence or absence of Oxy186 (10 µM). After 72 h, RNA was extracted and analyzed by Q-RT-PCR for the expression of Hh target genes Gli1, Ptch1, and Hip, normalized to Oaz1 expression. […] Luciferase activity was measured and normalized to the Renilla luciferase activity. […]
# [2] = test system: endogenous Gli activity in Sufu-/- cells; assay: Gli responsive luciferase reporter in Sufu-/- cells; assay type: cell-based, mouse; conditions: 10 µM, 72 h
# Experimental: as §1, §2
# [3] = test system: A549 cells; assay: Cell counting assay, A549; assay type: cell-based, human; conditions: 96 h
# Experimental: (§3) A549 and H2030 cells cultured in 12-well plates at 20% confluence were treated with Oxy186, HPI-1, Gant61, or GDC0449 for 96 hours and then trypsinized and suspended in fresh medium. An aliquot of cell suspension was applied to a hemocytometer and counted under a microscope.
# (§4) Figure 6 Inhibition of human pancreatic and lung cancer cell proliferation by Oxy186. (a,c) A549, (b) and (d) H2030, (e) PANC-1, and (f) CAPAN-1 cells were treated with the compounds as indicated in RPMI 1640 (a–d) or DMEM (e,f) containing 5% FBS for 96 h and then were trypsinized and counted. Data from a representative experiment are reported as the mean of triplicate determinations ± SD (* p < 0.05 vs. Control; ** p < 0.01 vs. control).
# [4] = test system: H2030 cells; assay: Cell counting assay, H2030; assay type: cell-based, human
# Experimental: as §3, §4
# [5] = test system: PANC-1 cells; assay: Cell counting assay, PANC-1; assay type: cell-based, human; conditions: 96 h
# Experimental: as §3, §4
# [6] = test system: CAPAN-1 cells; assay: Cell counting assay, CAPAN-1; assay type: cell-based, human; conditions: 96 h
# Experimental: as §3, §4
# [7] = test system: LXR target gene Abca1; assay: Induction of LXR target gene Abca1 in NIH3T3 cells, Q-RT-PCR; assay type: cell-based, mouse
# Experimental: Total RNA was extracted with the RNeasy Plus Mini Kit from Qiagen, according to the manufacturer’s instructions. One microgram of RNA was reverse-transcribed using an iScript Reverse Transcription Supermix from Bio-Rad, to make single-stranded cDNA. The cDNAs were then mixed with Qi SYBR Green Supermix (Bio-Rad, Hercules, CA, USA) for quantitative RT-PCR assay using a Bio-Rad I-cycler IQ quantitative thermocycler. All PCR samples were prepared in triplicate wells in a 96-well plate. After 40 cycles of PCR, melt curves were examined in order to ensure primer specificity. Fold changes in gene expression were calculated using the ΔΔCt method. Primers used for mouse were as follows: Oaz1 (5’-CCACTGCTTCGCCAGAGAG-3’) and (5’-CCCGGACCCAGGTTACTA-3’), Gli1 (5’-[…]-3’ and 5’-[…]-3’), Ptch1 (5’-CCATCGGCGACAAGAACC-3’ and 5’-[…]-3’), Hip (5’-[…]-3’ and 5’-[…]-3’), and Abca1 (5’-[…]-3’ and 5’-[…]-3’). Primers used for human were as follows: SREBP1c (5’-CGCTCCTCCATCAATGACA-3’ and 5’-[…]-3’), GAPDH (5’-[…]-3’ and 5’-[…]-3’), SHH (5’-CGGAGCGAGGAAGGGAAAG-3’) and (5’-[…]-3’), and GLI1 (5’-GAAGCCGAGCCGAGTATC-3’ and 5’-[…]-3’).
# Figure 7 Induction of LXR target gene expression by Oxy186 and LXR agonist TO901317 (TO). (a) NIH3T3 cells and (b) HepG2 cells were treated with DMEM containing 5% FBS in the presence or absence of TO (2 µM) or Oxy186 (10 µM). […] Data from a representative experiment are reported as the mean of triplicate determinations ± SD (** p < 0.01 vs. control).
# [8] = Pharmacokinetic study in mice, single oral dose; assay type: in vivo, balb/c mice; conditions: for Cmax: read-out: maximum serum concentration (Cmax)
# Experimental: In an initial assessment of the drug-like properties of Oxy186, we performed a pharmacokinetic (PK) study in mice. Oxy186, formulated in 4% ethanol, 15% DMSO, and 81% corn oil, was administered to balb/c mice by oral gavage as a single dose of 50 mg/kg.
# Figure 8 Drug-like properties of Oxy186. (a) A single dose of Oxy186 at 50 mg/kg, formulated in 4% ethanol/ 15% DMSO/ 81% corn oil, was administered to balb/c mice by oral gavage. Plasma samples were taken at 10 min, 30 min, 1, 2, 4, 6, 8, and 24 h, followed by LC/MS analysis of the plasma. (b) Evolution of Oxy186 from parent compound Oxy16 and their drug-like properties.
# [9] = Figure 8b drug-like properties summary
# [10] = mouse, plasma, balb/c mice, 50 mg/kg, oral gavage, single dose
compound,measurement,setting,value
"C[C@]12CC[C@H](O)C[C@@H]1CC[C@@H]1[C@@H]2CC[C@@]2(C)[C@H]1CC[C@@H]2[C@](C)(O)CCc1ccc(F)cc1 [Oxy186, (3S,5S,8R,9S,10S,13S,14S,17S)-17-((R)-4-(4-fluorophenyl)-2-hydroxybutan-2-yl)-10,13-dimethylhexadecahydro-1H-cyclopenta[a]phenanthren-3-ol]",Inhibition of Gli responsive luciferase reporter trans-activated by over expressed exogenous Gli1,[1],significantly inhibited
same,Inhibition of Gli responsive luciferase reporter activity (endogenous Gli),[2],significantly inhibited
same,Inhibition of cell proliferation,[3]; 10 µM,significantly inhibited
same,IC50,"[3]; Homo sapiens, read-out: IC50 for inhibition of cell proliferation",5 µM
same,Anti-proliferative effect,[4]; 96 h,significant anti-proliferative effect
same,IC50,"[4]; Homo sapiens, NCI-H2030, 96 h, read-out: IC50 for inhibition of cell proliferation",3.1 µM
same,Anti-proliferation effect,[5],significant anti-proliferation effects
same,Anti-proliferation effect,[6],significant anti-proliferation effects; also recorded: moderate anti-proliferative effects
same,LXR agonism (Figure 8b summary),[7]; [9],Weak LXR agonist
same,Induction of expression of LXR target gene Abca1,"[7]; NIH3T3-E1 cells, up to 10 µM",only modestly induced
same,In vivo availability / stability (Figure 8b summary),[8]; [9],Orally available in mice
same,Tolerability,"[8]; balb/c mice, 50 mg/kg, oral gavage, single dose",well tolerated; also recorded: no overt signs of toxicity
same,Tmax,[8]; [10],2 h
same,AUC,"[8]; mouse, plasma, balb/c mice, 50 mg/kg, oral gavage, single dose, read-out: area under the curve (AUC)",10500 ng·h/mL
same,Cmax,[8]; [10],1490 ng/mL
same,half-life,"[8]; mouse, plasma, balb/c mice, 50 mg/kg, oral gavage, single dose, read-out: oral half-life (T1/2) (converted)",4.5 h
same,AUC,"[8]; mouse, plasma, balb/c mice, 50 mg/kg, oral gavage, converted from ng/mL, read-out: area under the curve (AUC), molar",23.7 µM·h
same,Cmax,"[8]; mouse, plasma, balb/c mice, 50 mg/kg, oral gavage, converted with MW = 442.32",3.4 µM
